From ChEMBL document CHEMBL1201862, “PubChem BioAssay data set” (2004)
The source made the active and inactive calls.

Legend:
[1] = biological target: Cytochrome P450 2C19 (Homo sapiens, UniProt P33261); assay: Cytochrome panel assay with activity outcomes. Panel member name: p450-cyp2c19 Compounds with AC50 equal or less than 10 uM are considered active; type: functional
[2] = biological target: Cytochrome P450 2C9 (Homo sapiens, UniProt P11712)
[3] = biological target: Cytochrome P450 2D6 (Homo sapiens, UniProt P10635);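 also: CYP2D6 member of a cytochrome P450 panel assay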
[4] = Luminescence Cell-Based Dose Response to Identify Activators of 5'UTR Stem-Loop Driven Prion Protein mRNA Translation in H4-C Neuroglioblastoma Cells. [Related pubchem assays: 1829 (Project Summary), 1814 (Primary HTS)]; type: functional
[5] = Luminescence Cell-Based Dose Response HTS to Identify Activators of Luciferase Translation or Activity in H4 […] Cells. [Related pubchem assays: 1829 (Project Summary), 1814 (Primary HTS)]; type: functional
[6] = test system: H4; assay: Luminescence Cell-Based Dose Response HTS to Identify Activators of 5'UTR Stem-Loop Driven Prion Protein mRNA Translation in H4 Neuroglioblastoma Cells. [Related pubchem assays: 1829 (Project Summary), 1814 (Primary HTS)]; type: functional; conditions: Homo sapiens
[7] = Luminescence Cell-Based Dose Response to Identify Activators of Luciferase Translation or Activity in H4-C Neuroglioblastoma Cells. [Related pubchem assays: 1829 (Project Summary), 1814 (Primary HTS)]; type: functional
[8] = Luminescence Cell-Based Dose Confirmation to Identify Activators of 5'UTR Stem-Loop Driven Alpha-Synuclein mRNA Translation in H4 Neuroglioblastoma Cells. [Related pubchem assays: 1829 (Project Summary), 1814 (Primary HTS)]; type: functional
[9] = A cytotoxicity screen of small molecule inhibitors of the PhoP region in Salmonella typhi identified in the primary screen. [Related pubchem assays: 1850, 1864, 1985 ]; type: functional
[10] = inhibitors of intracellular T. cruzi replication, confirmation, NIH3T3 host cells, beta-gal luminescence (AID 2044); type: functional, cell-based;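 also: intracellular parasites grown in NIH/3T3 mouse fibroblasts as host cells; luminescent beta-galactosidase reporter signal from transgenic T. cruzi replicating inside host cells; inhibitors lower the luminescence signal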
[11] = cytotoxicity toward NIH3T3 fibroblasts, dose response, counter-screen, cell-based, ATP luminescence, mouse fibroblasts (AID 2010); type: functional;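 also: cells exposed to compound for about 90 hours before reading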
[12] = biological target: Induced myeloid leukemia cell differentiation protein Mcl-1 (Homo sapiens, UniProt Q07820); type: functional
[13] = test system: HeLa; assay: HeLa cell cytotoxicity, dose response, cytotoxicity control, ATP luminescence, cherry-pick samples (AID 687004); type: functional, cell-based; conditions: Homo sapiens
[14] = biological target: Peroxisome proliferator-activated receptor gamma/Nuclear receptor corepressor 2 (Homo sapiens, UniProt P37231+Q9Y618); assay: Counterscreen for NR2E3 inverse agonists: TR-FRET-based biochemical high throughput dose response assay to identify inverse agonists of the interaction between peroxisome proliferator-activated receptor gamma (PPARg) and nuclear receptor co-repressor 2 (NCOR2).; type: functional
[15] = biological target: Photoreceptor-specific nuclear receptor (Homo sapiens, UniProt Q9Y5X4); assay: NR2E3 inverse agonists, dose response, biochemical, TR-FRET (AID 463256); type: functional
[16] = biological target: Beta-galactosidase (Escherichia coli, UniProt Q8VNN2); assay: beta-galactosidase enzyme inhibitors and activators, dose response, artefact control for CCR6 antagonist project, biochemical, E. coli enzyme, set 3 (AID 504712); type: functional

Cytochrome P450 2D6, sequence (P10635 whole entry): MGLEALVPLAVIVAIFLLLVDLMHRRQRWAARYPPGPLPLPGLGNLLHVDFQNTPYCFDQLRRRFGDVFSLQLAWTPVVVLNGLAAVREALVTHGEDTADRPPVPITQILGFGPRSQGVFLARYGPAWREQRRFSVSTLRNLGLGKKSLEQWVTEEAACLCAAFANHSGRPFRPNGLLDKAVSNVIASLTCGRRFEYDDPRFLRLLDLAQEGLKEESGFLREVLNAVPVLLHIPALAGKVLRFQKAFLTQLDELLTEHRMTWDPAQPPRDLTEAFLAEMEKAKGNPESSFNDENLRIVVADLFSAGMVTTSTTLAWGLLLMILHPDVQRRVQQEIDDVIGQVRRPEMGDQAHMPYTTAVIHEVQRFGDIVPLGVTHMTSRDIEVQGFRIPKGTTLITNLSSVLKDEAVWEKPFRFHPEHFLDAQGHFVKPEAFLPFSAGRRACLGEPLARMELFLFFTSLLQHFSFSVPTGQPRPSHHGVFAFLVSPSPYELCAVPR
Cytochrome P450 2C19, sequence (P33261 whole entry): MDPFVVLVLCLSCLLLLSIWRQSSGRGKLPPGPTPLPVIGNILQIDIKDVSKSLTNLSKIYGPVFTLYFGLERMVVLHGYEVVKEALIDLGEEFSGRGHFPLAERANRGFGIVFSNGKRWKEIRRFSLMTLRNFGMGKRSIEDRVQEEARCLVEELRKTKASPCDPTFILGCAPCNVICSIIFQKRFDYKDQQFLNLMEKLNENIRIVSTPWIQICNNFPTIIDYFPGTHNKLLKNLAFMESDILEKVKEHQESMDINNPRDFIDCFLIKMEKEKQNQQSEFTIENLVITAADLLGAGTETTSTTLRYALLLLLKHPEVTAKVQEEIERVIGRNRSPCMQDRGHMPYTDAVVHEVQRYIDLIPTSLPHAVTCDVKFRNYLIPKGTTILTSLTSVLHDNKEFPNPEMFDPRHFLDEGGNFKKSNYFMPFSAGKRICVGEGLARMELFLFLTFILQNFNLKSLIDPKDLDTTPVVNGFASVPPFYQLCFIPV
Photoreceptor-specific nuclear receptor, sequence (Q9Y5X4 whole entry): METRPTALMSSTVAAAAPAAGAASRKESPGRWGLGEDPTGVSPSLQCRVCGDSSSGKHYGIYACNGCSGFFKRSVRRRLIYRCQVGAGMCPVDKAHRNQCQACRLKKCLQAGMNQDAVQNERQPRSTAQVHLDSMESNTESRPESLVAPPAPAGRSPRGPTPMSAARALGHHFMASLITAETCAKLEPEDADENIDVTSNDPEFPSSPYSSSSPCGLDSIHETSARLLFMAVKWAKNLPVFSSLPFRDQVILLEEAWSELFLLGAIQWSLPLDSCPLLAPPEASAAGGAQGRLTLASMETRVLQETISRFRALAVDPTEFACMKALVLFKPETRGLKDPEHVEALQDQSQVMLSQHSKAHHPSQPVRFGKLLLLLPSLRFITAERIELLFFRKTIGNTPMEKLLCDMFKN
Peroxisome proliferator-activated receptor gamma/Nuclear receptor corepressor 2, sequence (P37231 whole entry): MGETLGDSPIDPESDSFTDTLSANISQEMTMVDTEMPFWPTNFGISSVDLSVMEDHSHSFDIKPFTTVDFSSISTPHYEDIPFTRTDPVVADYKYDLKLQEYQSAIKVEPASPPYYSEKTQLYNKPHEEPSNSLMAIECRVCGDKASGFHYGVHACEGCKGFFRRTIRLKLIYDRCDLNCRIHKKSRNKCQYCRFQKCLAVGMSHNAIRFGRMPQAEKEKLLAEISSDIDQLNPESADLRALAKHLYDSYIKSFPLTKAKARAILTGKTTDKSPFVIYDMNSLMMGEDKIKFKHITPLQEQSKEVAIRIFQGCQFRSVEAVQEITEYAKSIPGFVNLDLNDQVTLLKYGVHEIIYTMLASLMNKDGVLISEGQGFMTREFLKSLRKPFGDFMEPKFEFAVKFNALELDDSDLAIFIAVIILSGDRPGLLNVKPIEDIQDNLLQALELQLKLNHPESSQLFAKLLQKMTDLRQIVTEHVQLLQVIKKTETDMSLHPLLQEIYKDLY
Peroxisome proliferator-activated receptor gamma/Nuclear receptor corepressor 2, sequence (Q9Y618 whole entry): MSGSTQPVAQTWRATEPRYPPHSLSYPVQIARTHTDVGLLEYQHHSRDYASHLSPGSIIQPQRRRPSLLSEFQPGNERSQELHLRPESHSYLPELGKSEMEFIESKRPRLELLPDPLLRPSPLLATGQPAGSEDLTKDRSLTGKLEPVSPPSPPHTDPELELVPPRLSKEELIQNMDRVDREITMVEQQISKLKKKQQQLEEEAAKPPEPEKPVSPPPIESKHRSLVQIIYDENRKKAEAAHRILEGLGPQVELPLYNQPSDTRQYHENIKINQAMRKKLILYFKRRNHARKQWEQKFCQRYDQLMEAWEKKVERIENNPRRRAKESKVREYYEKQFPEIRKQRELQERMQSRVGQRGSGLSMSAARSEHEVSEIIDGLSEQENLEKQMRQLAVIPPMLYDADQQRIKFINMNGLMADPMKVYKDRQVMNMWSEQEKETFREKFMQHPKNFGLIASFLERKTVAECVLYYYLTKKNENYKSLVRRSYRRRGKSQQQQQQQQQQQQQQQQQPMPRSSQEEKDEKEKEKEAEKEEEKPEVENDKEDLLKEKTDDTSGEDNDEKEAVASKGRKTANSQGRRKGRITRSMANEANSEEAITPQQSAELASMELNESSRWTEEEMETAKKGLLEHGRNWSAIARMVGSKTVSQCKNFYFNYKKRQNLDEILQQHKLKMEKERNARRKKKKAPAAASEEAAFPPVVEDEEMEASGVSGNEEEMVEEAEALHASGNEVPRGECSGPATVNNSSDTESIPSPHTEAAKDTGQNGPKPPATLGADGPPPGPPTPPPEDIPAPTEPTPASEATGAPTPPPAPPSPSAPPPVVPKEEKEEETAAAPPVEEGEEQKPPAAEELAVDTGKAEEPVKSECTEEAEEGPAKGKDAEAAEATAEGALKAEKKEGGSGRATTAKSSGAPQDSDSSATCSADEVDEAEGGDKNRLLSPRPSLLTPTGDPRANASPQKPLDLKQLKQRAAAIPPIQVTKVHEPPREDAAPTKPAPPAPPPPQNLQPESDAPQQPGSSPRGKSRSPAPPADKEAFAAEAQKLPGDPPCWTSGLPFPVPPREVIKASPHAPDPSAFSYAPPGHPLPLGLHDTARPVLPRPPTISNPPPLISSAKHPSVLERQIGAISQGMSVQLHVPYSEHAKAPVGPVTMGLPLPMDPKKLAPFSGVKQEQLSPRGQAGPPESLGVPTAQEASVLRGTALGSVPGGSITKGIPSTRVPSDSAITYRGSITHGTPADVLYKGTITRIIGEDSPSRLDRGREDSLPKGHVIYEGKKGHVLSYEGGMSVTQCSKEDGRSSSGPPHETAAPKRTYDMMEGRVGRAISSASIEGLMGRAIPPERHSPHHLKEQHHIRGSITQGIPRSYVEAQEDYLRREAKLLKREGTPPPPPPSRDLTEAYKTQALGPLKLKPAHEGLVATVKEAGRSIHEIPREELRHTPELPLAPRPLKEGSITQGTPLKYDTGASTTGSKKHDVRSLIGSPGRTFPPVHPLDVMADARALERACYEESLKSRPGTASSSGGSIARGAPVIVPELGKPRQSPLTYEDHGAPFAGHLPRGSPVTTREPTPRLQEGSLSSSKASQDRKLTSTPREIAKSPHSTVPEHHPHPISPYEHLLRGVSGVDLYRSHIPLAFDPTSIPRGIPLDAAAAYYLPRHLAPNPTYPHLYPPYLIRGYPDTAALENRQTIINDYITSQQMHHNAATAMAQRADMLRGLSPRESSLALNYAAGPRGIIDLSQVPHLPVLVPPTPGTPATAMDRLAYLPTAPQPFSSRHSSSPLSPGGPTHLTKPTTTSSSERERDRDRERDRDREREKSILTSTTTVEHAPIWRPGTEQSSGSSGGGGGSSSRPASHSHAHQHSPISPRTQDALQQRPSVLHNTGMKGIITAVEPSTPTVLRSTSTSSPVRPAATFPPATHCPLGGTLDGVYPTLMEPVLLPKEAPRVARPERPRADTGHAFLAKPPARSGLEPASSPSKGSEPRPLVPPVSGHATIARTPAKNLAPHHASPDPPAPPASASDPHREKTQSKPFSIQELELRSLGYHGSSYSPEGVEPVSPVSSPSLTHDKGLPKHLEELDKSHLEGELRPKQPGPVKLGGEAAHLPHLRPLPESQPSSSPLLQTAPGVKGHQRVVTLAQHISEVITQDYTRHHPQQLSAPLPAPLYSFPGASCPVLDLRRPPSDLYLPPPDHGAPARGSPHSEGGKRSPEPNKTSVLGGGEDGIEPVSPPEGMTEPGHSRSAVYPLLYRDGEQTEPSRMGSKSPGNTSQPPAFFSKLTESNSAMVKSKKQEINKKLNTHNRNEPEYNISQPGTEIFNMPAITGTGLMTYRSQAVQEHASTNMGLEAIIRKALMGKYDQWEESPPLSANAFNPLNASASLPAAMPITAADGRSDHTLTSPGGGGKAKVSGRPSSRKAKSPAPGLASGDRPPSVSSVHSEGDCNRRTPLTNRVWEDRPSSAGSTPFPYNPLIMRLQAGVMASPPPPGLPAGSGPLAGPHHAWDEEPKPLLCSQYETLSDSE
Cytochrome P450 2C9, sequence (P11712 whole entry): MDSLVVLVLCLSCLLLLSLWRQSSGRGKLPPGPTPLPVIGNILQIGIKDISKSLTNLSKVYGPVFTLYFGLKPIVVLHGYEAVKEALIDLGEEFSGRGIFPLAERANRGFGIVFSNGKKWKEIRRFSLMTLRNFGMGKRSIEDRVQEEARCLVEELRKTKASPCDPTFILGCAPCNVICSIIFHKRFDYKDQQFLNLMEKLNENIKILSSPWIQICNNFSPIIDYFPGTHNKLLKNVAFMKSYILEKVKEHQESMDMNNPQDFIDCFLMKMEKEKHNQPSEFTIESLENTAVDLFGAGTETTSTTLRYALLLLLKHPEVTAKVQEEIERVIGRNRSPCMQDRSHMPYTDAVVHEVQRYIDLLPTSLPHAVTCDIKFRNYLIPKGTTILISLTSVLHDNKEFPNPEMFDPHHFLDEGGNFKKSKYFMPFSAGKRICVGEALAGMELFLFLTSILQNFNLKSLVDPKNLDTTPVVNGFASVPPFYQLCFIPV

## COC(=O)CNC(=O)CN1C(=O)N(c2ccccc2)C(N(O)C(=O)Nc2ccccc2)C1(C)C (centres undefined)
[1]; read-out: AC50
  AC50: 3.55 µM (inconclusive)
[2]
  AC50: 10 µM (inconclusive)
[3]
  AC50: inconclusive

## COc1ccc(C(=O)C2=C(O)C(=O)N(CCCC(=O)O)C2c2ccc(OC)cc2)cc1 (centres undefined)
[1]
  AC50: inconclusive
[3]
  AC50: inconclusive

## Cc1ccc(OCC(=O)Nc2ccc3c(c2)OCO3)c(C)c1
[4]
  EC50: > 12 µM (not active)
[5]
  EC50: < 0.1 µM (active)
[6]
  EC50: 31.7 µM (active)
[7]
  EC50: 1.1 µM (active)
[8]
  EC50: 0.914 µM (active)

## O=S(=O)(O)c1ccc(/N=N\c2ccccc2)cc1
[3]
  AC50: inconclusive

## Cn1c(=O)c(=O)n(C)c2cc(S(=O)(=O)N3CCc4ccccc43)ccc21
[9]
  EC50: > 50 µM (active)

## CCn1c(C)cc(/C=C2\NC(=O)N(Cc3ccc(Cl)cc3)C2=O)c1C
[10]
  EC50: 0.178 µM (active)
[11]
  EC50: > 30 µM (not active)
[12]
  IC50: 3.37 µM (active)
[1]; read-out: AC50
  AC50: 1.78 µM (inconclusive)

## Cc1cc(C)c(NC(=O)C2CCCN2CCC(C)C)c(C)c1 (centres undefined)
[13]
  AC50: > 52 µM (inactive)

## CN(C)C1C(=O)C(C(N)=O)=C(O)C2(O)C(O)=C3C(=O)c4c(O)cccc4C(C)(O)C3CC12 (centres undefined)
[9]
  EC50: > 50 µM (active)

## CSc1cccc(NC(=O)c2cc(S(=O)(=O)N3CCCCC3)c[nH]2)c1
[14]
  IC50: 4.12 µM (active)
[15]
  IC50: 3.45 µM (active)

## O=C(Nc1ccnc(-c2cccnc2)n1)c1ccc(Cl)cc1
[14]
  IC50: 5.27 µM (active)
[15]
  IC50: 5.23 µM (active)

## Cc1cc2oc(C(=O)NCc3ccncc3)c(C)c2cc1C
[9]
  EC50: > 50 µM (active)

## Cc1nn(-c2ccccc2)c(O)c1/C=N/N1C(=O)c2ccc3c4c(ccc(c24)C1=O)CC3
[16]
  IC50: > 66.6 µM (inactive)
